SMILES strings stand for the structures. Counter-ions that a name gives are not always drawn.

We go through two molecules from US11744830B2, “Ameliorative agent for cytokine release syndrome and so on” (TORII PHARMACEUTICAL CO., LTD., priority 2018, dated 2023).

For experiment [1], the system named is IFN-γ production from CD8^+ T cells. The experiment can be described thus: T-cell stimulation bead-induced IFN-γ production in CD8^+ T cells. It is filed as cell-based, human. The settings on record: CD3/CD28 stimulation, 3 days. As to the method:
(§1) Cryopreserved PBMCs were quickly thawed in a 37° C. thermostat and added to a tube containing medium. After centrifugation (at room temperature at 300 g for 10 minutes) to remove the supernatant, the cells were suspended in the medium, a portion of which was then mixed with a trypan blue solution to count the number of viable cells. The cell suspension was centrifuged (at room temperature at 300 g for 10 minutes) to remove the supernatant, followed by addition of MACS Buffer in a volume of 80 μL per 1×10^7 cells to suspend the cells, to which Human CD8 MicroBeads (20 μL) were further added. After being allowed to stand on ice for 15 minutes, the cell suspension was diluted with MACS Buffer (2 mL) and centrifuged (at room temperature at 300 g for 10 minutes) to remove the supernatant.
(§2) MACS Buffer (500 μL) was added to the tube, and the cells were suspended and then applied to a separatory column to separate CD8^+ cells. The CD8^+ cell fraction was diluted to 15 mL with the medium and then centrifuged (at room temperature at 300 g for 10 minutes). The supernatant was removed and the cells were suspended in the medium (1 mL), followed by counting the number of viable cells. The cell suspension adjusted with the medium to 1×10^6 cells/mL was seeded in a 96-well plate in a volume of 100 μL/well (1×10^5 cells/well) and allowed to stand in a CO2 incubator for 1 to 2 hours.
The collected culture supernatants were quantified for IFN-γ using Human IFN-γ DuoSet ELISA.

Experiment [2] has as its system OPN production from CD14^+ cells. The experiment can be described thus: LPS stimulation-induced OPN production in CD14^+ cells. It is filed as cell-based, human. The note with it: for IC50: Homo sapiens, 72 h, LPS 500 ng/mL, 3 days. How it is done:
Cryopreserved PBMCs were quickly thawed in a 37° C. thermostat and added to a tube containing medium. After centrifugation (at room temperature at 300 g for 10 minutes) to remove the supernatant, the cells were suspended again in the medium, followed by counting the number of viable cells. The cell suspension was centrifuged (at room temperature at 300 g for 10 minutes) to remove the supernatant, followed by addition of MACS Buffer to suspend the cells, to which Human CD14 MicroBeads were further added. After being allowed to stand on ice for 15 minutes, the cell suspension was diluted with MACS Buffer and centrifuged (at room temperature at 300 g for 10 minutes) to remove the supernatant. MACS Buffer was added to the tube, and the cells were suspended and then applied to a separatory column to separate CD14^+ cells. The CD14^+ cell fraction was diluted with the medium and then centrifuged (at room temperature at 300 g for 10 minutes). The supernatant was removed and the cells were suspended in the medium (1 mL), followed by counting the number of viable cells. The cell suspension was adjusted with the medium to 2.4×10^5 or 3×10^5 cells/mL and seeded in a 96-well plate (2.4×10^4 cells/well), which was then allowed to stand in a CO2 incubator for 1 to 2 hours.
The collected culture supernatants were quantified for OPN using Human OPN DuoSet ELISA.

For experiment [3], the system named is IL-18 production from LPS-pretreated CD14^+ cells. The experiment can be described thus: ATP stimulation-induced IL-18 production from LPS-pretreated CD14^+ cells. It is filed as cell-based, human. The note with it: for IC50: Homo sapiens, CD14^+ cells (LPS-pretreated), ATP 5 mM. As to the method:
as §1, with “suspended again” for “suspended”, “followed by counting” for “a portion of which was then mixed with a trypan blue solution to count”, “Buffer” for “Buffer in a volume of 80 μL per 1×10^7 cells”, “CD14” for “CD8”, “MicroBeads” for “MicroBeads (20 μL)”, “Buffer” for “Buffer (2 mL)”
as §2, with “Buffer” for “Buffer (500 μL)”, “CD14^+” for “CD8^+”, “diluted” for “diluted to 15 mL”, “2×10^6” for “1×10^6”, “plate” for “plate in a volume of 100 μL/well”, “hours. […] The cells were then stimulated with LPS (final concentration: 500 ng/mL) for 6 hours at 37° C. and an ATP solution (final concentration: 5 mM) was added thereto, and the 96-well plate was further allowed to stand in a CO2 incubator for 2 hours to collect the culture supernatants.” for “hours.”
The collected culture supernatants were quantified for IL-18 using Human IL-18 DuoSet ELISA.

The subject of experiment [4] is VEGF production from macrophages. The experiment in a line: LPS stimulation-induced VEGF production in macrophages. It is filed as cell-based, human. How it is done:
CD14^+ cells were cultured in 20 ng/mL M-CSF-containing RPMI medium at 37° C. for 5 days to induce differentiation into macrophages (during which the medium was replaced once every two days with fresh 20 ng/mL M-CSF-containing RPMI medium). […] The macrophages were then stimulated with LPS (final concentration: 100 ng/mL) or RPMI medium alone at 37° C. for 3 days, followed by collecting the culture supernatants. The collected culture supernatants were quantified for VEGF using Human VEGF DuoSet ELISA.

Experiment [5] deals with IFN-γ production. The experiment can be described thus: CRS toxicity evaluation system using CAR-T cells: IFN-γ. It is filed as cell-based. The note with it: Homo sapiens, Monocyte, target cells and monocytes, 72 hours. How it is done: (§3) The supernatants were collected at 72 hours after the initiation of culture, and various cytokines in each supernatant were measured by FACS multiplex assay.

Experiment [6] concerns TNF-α production. The experiment in a line: CRS toxicity evaluation system using CAR-T cells: TNF-α. It is filed as cell-based, human. The note with it: for IC50: Homo sapiens, Monocyte, CAR-T cells, target cells and monocytes, 72 hours. How it is done: as §3
The test system of experiment [7] is IL-6, IL-8 and other inflammatory cytokines. The settings on record: phase I study, LPS loading; cited from earlier work.
Experiment [8] deals with acute myeloid leukemia (AML) cell lines. The settings on record: in vitro system; cited from earlier work.

Broadly, the IC50 is the midpoint of a concentration-inhibition curve. On to `CCOC(=O)[C@H](Cc1ccccc1)NC(=O)c1cc(Cl)c(OCCN2CCN(C)CC2)c(Cl)c1O` [JTE-607, (−)-ethyl N-{3,5-dichloro-2-hydroxy-4-[2-(4-methylpiperazin-1-yl)ethoxy]benzoyl}-L-phenylalaninate dihydrochloride], for which the IC50 in experiment [1] (Homo sapiens, T-cell, 72 h) was greater than 300 nM; in experiment [2] it was 132 nM; in experiment [3] it was 2.4 nM; in experiment [4] (Homo sapiens, Macrophage, 72 h, read-out: IC50 value, VEGF) it was 204 nM; in experiment [5] it was 598 nM; in experiment [6], 413 nM. Further, the “effect on VEGF production from macrophages” value in experiment [4] (Macrophages, LPS) is listed as “tended to suppress VEGF production from macrophages, but its effect was marginal”. Besides, the “elevation of C-reactive protein (CRP) levels” value in experiment [7] is listed as “suppress the elevation of C-reactive protein (CRP) levels in a dose-dependent manner”. The “production of IL-6, IL-8 and other inflammatory cytokines” value in experiment [7] was “suppress the production of IL-6, IL-8 and other inflammatory cytokines”. In addition, in experiment [8], the “autoproliferation of AML cell lines” value is listed as “selectively suppress the autoproliferation”.

Turning to `C[C@]12C=CC(=O)C=C1CC[C@@H]1[C@@H]2[C@@H](O)C[C@@]2(C)[C@H]1CC[C@]2(O)C(=O)CO` [PSL, Prednisolone], the IC50 is 149 nM in experiment [1]; 149 nM in experiment [1] (Homo sapiens, T-cell, 72 h); greater than 30000 nM in experiment [2]; greater than 30000 nM in experiment [3]; 880 nM in experiment [5]; greater than 100000 nM in experiment [6]. Moreover, the “suppressive effect on OPN production” value in experiment [2] (LPS) is reported as “no suppressive effect”. For the same molecule, the “suppressive effect on IL-18 production” value in experiment [3] (LPS-pretreated CD14^+ cells, ATP) is given as “no suppressive effect”. Besides, the “suppressive effect on TNF-α” value in experiment [6] (CRS toxicity evaluation system using CAR-T cells) is “no suppressive effect”.
